Measured values published in patent US20230193336A1, “ENASIDENIB GLYCOSIDES AND METHODS OF TREATING DISEASES ASSOCIATED WITH ISOCITRATE DEHYDROGENASE (IDH) DYSFUNCTION” (Double Rainbow Biosciences Inc., priority 2020, published 2023).
≈ marks a conversion by molar mass, not a printed value. Like-named read-outs stand apart in the source and are kept apart here. One block for each compound: values may come before it.

Tests used:
[1] = in vivo; cited from earlier work
[2] = target: T1, UGT1A1 (Homo sapiens, UniProt P22309); settings: side effect: abnormal bilirubin metabolism; cited from earlier work
T1 sequence (P22309 26-533): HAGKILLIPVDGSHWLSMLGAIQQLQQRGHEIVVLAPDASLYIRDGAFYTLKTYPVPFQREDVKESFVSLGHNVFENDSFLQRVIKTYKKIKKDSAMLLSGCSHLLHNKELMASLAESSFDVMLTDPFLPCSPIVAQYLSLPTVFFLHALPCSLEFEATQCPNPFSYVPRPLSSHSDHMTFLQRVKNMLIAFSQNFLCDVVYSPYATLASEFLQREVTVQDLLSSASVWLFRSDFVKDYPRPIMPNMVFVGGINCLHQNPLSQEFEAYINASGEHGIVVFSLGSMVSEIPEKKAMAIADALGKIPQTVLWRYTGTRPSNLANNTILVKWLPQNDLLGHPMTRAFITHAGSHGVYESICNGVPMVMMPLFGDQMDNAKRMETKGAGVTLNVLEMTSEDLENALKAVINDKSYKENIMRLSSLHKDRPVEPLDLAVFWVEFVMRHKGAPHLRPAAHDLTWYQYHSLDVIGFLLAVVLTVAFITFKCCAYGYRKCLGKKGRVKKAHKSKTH

[3] = cited from earlier work
[4] = system: cancer cell lines containing endogenous or exogenously expressed mutant IDH2; settings: cancer cell lines with endogenous or exogenously expressed mutant IDH2; cited from earlier work
[5] = system: cell culture assays; settings: cited from earlier work
[6] = system: mouse xenograft models of AML; settings: cited from earlier work
[7] = 100 mg dose; cited from earlier work
[8] = system: IDH2 R140 and R172 mutant homodimers or heterodimers; settings: cited from earlier work
[9] = system: AML patients with an IDH2 mutation; settings: cited from earlier work
[10] = clinical trials; cited from earlier work
[11] = system: human AML patients; settings: cited from earlier work
[12] = physchem; type: physicochemical
Procedure: The water solubility of enasidenib and enasidenib-O-D-glucoside was investigated by suspending excess amounts of the two compounds in 200 μl of distilled water in a microcentrifuge tube at 25° C. for 12 h. Afterwards, each sample was centrifuged at 12,000×g for 20 min. The supernatant of each sample was then filtered through a 0.45-μm membrane filter and the concentration of the compound in the supernatant, which is defined as the water-soluble component, was measured by its absorbance at 254 nm using HPLC, and its absolute solubility was calculated in reference to the concentration-absorbance standard curve.

Compound: C[C@@H](Nc1nc(N[C@H](C)C(F)(F)F)nc(-c2cccc(Cl)n2)n1)C(F)(F)F [AG-881]
blood-brain barrier penetration [1]: can penetrate the blood-brain barrier

solubility at 12 h ([12]; 25 °C, water, thermodynamic from solid): 6 µg/mL (≈ 12.7 µM)
Compound: CC(C)(O)CNc1nc(Nc2ccnc(C(F)(F)F)c2)nc(-c2cccc(C(F)(F)F)n2)n1 [enasidenib, Enasidenib]
UGT1A1 inhibition [2]: inhibition of UGT1A1
aqueous solubility [3]: less than 74 μg/mL
aqueous solubility ([3]; pH 7.4 (Yen et al. 2017)): 23 µM (≈ 10.9 µg/mL)
2-HG concentration [4]: reduced the 2-HG concentration
differentiation [5]: induced differentiation
2-HG concentration [6]: reduced the 2-HG concentration
oral bioavailability [7]: 57%
lower inhibitory concentration for mutant IDH2 compared to the wild type IDH2 ([8]; R140 and R172 mutant homodimers or heterodimers versus wild type IDH2): approximately 40 fold
inhibition kinetics ([8]; kinetics assays): slow on/slow off tight binding inhibition kinetics
AML patients with an IDH2 mutation who experienced complete remission ([9]; human, in vivo): 19.3%
overall response rate ([9]; single therapeutic, AML and relapsed/refractory-AML patients with an IDH2 mutation): 41%
patients who completely discontinued enasidenib [10]: 17%
patients who had to stop taking the drug as a result of adverse events [10]: 43%
patients with serious adverse events [10]: approximately 77%
2-HG concentration [11]: reduced the 2-HG concentration

water solubility [12]: 40 µg/mL (≈ 62.9 µM)
water solubility relative to enasidenib [12]: 7 times
Compound: CC(C)(CNc1nc(Nc2ccnc(C(F)(F)F)c2)nc(-c2cccc(C(F)(F)F)n2)n1)OC1O[C@H](CO)[C@@H](O)[C@H](O)[C@H]1O (stereo partly drawn) [enasidenib-O-D-glucoside]
